In patent US7910579B2, “Benzoxazole derivatives” (Tohoku University, priority 2006, dated 2011):
Where two headings read alike, the source gives them in different places.

Columns and labels:
[1] = target: T1, amyloid β protein in the brain section of an Alzheimer disease patient (Homo sapiens, UniProt P05067); experiment: Staining test on a brain section of an Alzheimer disease patient: amyloid β protein; type: binding; conditions: for Binding to (staining of) amyloid β protein in the brain section of an Alzheimer disease patient: 100 μM solution in 50% ethanol, 10 minutes, paraffin brain section; for Specificity to amyloid β: statement in the description of formulae (II) to (VI)
T1 construct: from tissue; host or cells: paraffin-embedded temporal lobe and hippocampus of Alzheimer disease patients
From the text: (1) Brain specimens at the temporal lobe and the hippocampus of patients to which a definitive diagnosis of Alzheimer disease had been given, and those of normal senile persons were used. The specimens were given by our coworker, Fukushimura Hospital, Longevity Medicine Institute, and we were given their consent of use of the specimens for our study purpose by the bereaved of the patients (Fukushimura Hospital Ethical Review Board Approval No. 20).
(2) The paraffin-embedded brain tissue was cut Into slices having a thickness of 6 μm or 8 μm, and extended and dried on a slide. The paraffin brain section was steeped for paraffin removal in xylene twice for 10 minutes, 100% ethanol twice for 5 minutes, 90% ethanol for 5 minutes and running water for 10 minutes in that order.
(3) For pretreatment prior to the staining treatment with a compound of the invention, the sections were steeped for autofluorescence removal with lipofuscin. First, the paraffin-removed sections were dipped in 0.25% KMnO4 solution for 20 minutes. These were washed with PBS, twice for 2 minutes, then dipped in 0.1% K2S2O5/oxalic acid solution for about 5 seconds, and then further washed with PBS, three times for 2 minutes.
(4) About 150 μl of a 100 μM solution of a compound of the invention dissolved in 50% ethanol was dropwise applied to the section and reacted for 10 minutes. After dipped five times in tap water, the section was entrapped with Fluor Save Reagent (Calbiochem), and analyzed through microscopy with a fluorescence microscope (Nikon, Eclipse 80i). The images were taken with a digital camera (Nikon Dxm 1200F or Photometrics' Cool SNAP ES).
(1) After paraffin removal, the sections were washed in distilled water, twice for 2 minutes. Then, using ImmunoPen, the tissue was marked with a surrounding line; about 150 μl of formic acid was dropwise applied to the section and statically left at room temperature for 5 minutes. The section was washed with tap water for 5 minutes, then dipped in cold PBS-Tween 20 for 2 minutes, and thereafter about 150 μl of 0.05% trypsin solution was dropwise applied to it and reacted at 37° C. for 15 minutes.
(2) In an ice bath, this was washed with cold PBS-Tween 20, twice for 5 minutes, and then 2 drops of blocking serum were applied to it and reacted at 37° C. for 30 minutes. Excess water was removed, and then about 150 μl of a specific antibody to amyloid β protein, 6F/3D (by DAKO, 1/50 dilution) was dropwise applied to it, and reacted at 37° C. for 1 hour.
(3) Further, this was washed with cold PBS-Tween 20, 5 times for 2 minutes, and then 2 drops of an anti-mouse IgG (H+L), goat, biotin-binding solution were applied to it and reacted at 37° C. for 1 hour. Then, this was washed with cold PBS-Tween 20, three times for 2 minutes, and 2 drops of an ABC solution (streptoavidin-biotin-peroxidase composite solution) were applied to it, and left statically as such for 30 minutes. Again this was washed with cold PBS-Tween 20, three times for 2 minutes, and then about 150 μl of a DAB solution (10 mg of DAB was dissolved in 20 ml of 0.05 mol/liter tris-HCl buffer, and just before use, 100 μl of 3% hydrogen peroxide water was added to it) was dropwise applied to it for sufficiently staining it. Then, this was washed with distilled water for 1 minute to stop the reaction, then entrapped and observed through microscopy.

[2] = Acute Toxicity Test; type: in vivo; conditions: Crj:CD1 male mice, tail vein, observed for 7 days
Experimental: The compounds of the invention were tested for their acute toxicity through intravenous administration thereof to mice. Four Crj:CD1 male mice formed one test group, and some test groups of those mice were used (the mean body weight of the mice of each group was from 31 to 32 g). A test compound was dissolved in a mixture of 1 N HCl, polyethylene glycol-400 and distilled water, or dissolved in DMSO, and then diluted with distilled water. This was administered to each mouse via its tail vein.

[3] = target: T2, Amyloid β protein 1-40 (Homo sapiens, UniProt P05067); experiment: Fluorescence Congo Red Method; type: binding; conditions: 1 h, compound 10 μM, amyloid β protein 5 μM
T2 construct: Amyloid β protein 1-40 (bought from Peptide Laboratory); purchased Peptide Laboratory
Experimental: Next described is a screening method for the compounds of the invention. Some of the compounds of the invention could not be screened according to a Thioflavin T method, since their fluorescence wavelength overlaps with that of Thioflavin T. For such compounds, the following novel screening method was introduced. (1) Amyloid β protein 1-40 (bought from Peptide Laboratory) was dissolved in a phosphate buffer (pH 7.4) and left at 37° C. for 4 days. (2) 50 μl of Congo red dissolved in the buffer was applied to a 96-well microplate (final concentration, 0.1, 0.3, 1 μM). (3) 100 μl of amyloid β protein was added to it (final concentration 5 μM), and left as such for 30 minutes. (4) 100 μl of a test compound dissolved in the buffer was added to it (final concentration, 10 μM, and left as such for 60 minutes. (5) Using a fluorescence microplate reader (Spectra Max 190 by Molecular Device), the sample was analyzed at the optimum exciting wavelength and the test wavelength that had been previously determined. (6) The fluorescence intensity in the presence of the test compound, amyloid β protein and Congo red is represented by A; that in the presence of the test compound and Congo red is by B; that in the presence of the test compound and amyloid β protein is by C; and that in the presence of only the test compound is by D. The β structure recognition of the test compound is computed according to the following formula: β structure recognition (%) of test compound={(A−B)/(C−D)}×100. (7) It may be said that the test compound having a higher β structure recognition percentage may have higher binding specificity to amyloid β protein.

[4] = Congo red 0.1 μM, read-out: Binding Percentage of Compound in the presence of 0.1 μM CR
[5] = Congo red 0.3 μM, read-out: Binding Percentage of Compound in the presence of 0.3 μM CR
[6] = Congo red 1 μM, read-out: Binding Percentage of Compound in the presence of 1 μM CR

T1 sequence (P05067 672-713 limits assumed): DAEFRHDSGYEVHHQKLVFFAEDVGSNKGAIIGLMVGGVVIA
T2 sequence (P05067 672-711): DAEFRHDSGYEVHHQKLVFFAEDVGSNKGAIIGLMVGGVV

Question: What does the source list for `Cc1ccc2c(c1)C(C)(C)C1(/C=C/C=C/c3ccc(N(C)C)cc3)NC(=O)CCN21` (centres unmarked) [THK-565]?
Answer: Binding to (staining of) amyloid β protein in the brain section of an Alzheimer disease patient [1]: bound to the amyloid β protein; Specificity to amyloid β [1]: high specificity to amyloid β

Question: For `OCC(CF)Oc1ccc2nc(/C=C/c3cnc(N4CCCOC4)s3)oc2c1` (centres unmarked) [THK-757, (E)-6-[(1-fluoromethyl-2-hydroxy)ethoxy]-2-[2-[2-([1,3]oxadinan-3-yl)-thiazol-5-yl]ethenyl] benzoxazole], which “Maximum Permissible Dose (mg/kg, intravenous administration)” value [2] is on record?
Answer: Its value is “≧10 mg/kg”.

Question: What about the activity at 10 µM [3, 4] of the same molecule?
Answer: Its activity at 10 µM is 52.4%.

Question: What about the activity at 10 µM [3, 5] of the same molecule?
Answer: Its activity at 10 µM is 24.8%.

Question: And the activity at 10 µM [3, 6]?
Answer: The activity at 10 µM was 10.3%.

Question: Which results are given for `CN(C)c1ccc(/C=C/C23NC(=O)CN2c2ccc(Br)cc2C3(C)C)cc1` (centres unmarked) [THK-556, 7-bromo-9a-[2-(4-dimethyl-amino-phenyl)-vinyl]-9,9-dimethyl-9,9a-dihydro-1H-imidazo[1,2-a]indol-2-one]?
Answer: Binding to (staining of) amyloid β protein in the brain section of an Alzheimer disease patient [1]: bound to the amyloid β protein; Specificity to amyloid β [1]: high specificity to amyloid β

Question: Which results are given for `OCC(CF)Oc1ccc2nc(/C=C/c3cnc(N4CCCOCC4)s3)oc2c1` (centres unmarked) [THK-766, (E)-6-[(1-fluoromethyl-2-hydroxy)ethoxy]-2-[2-[2-homomorpholinothiazol-5-yl)ethenyl]benzoxazole]?
Answer: Binding to (staining of) amyloid β protein in the brain section of an Alzheimer disease patient [1]: white space arrow indicates amyloid β protein; Maximum Permissible Dose (mg/kg, intravenous administration) [2]: ≧10 mg/kg; activity at 10 µM [3, 4]: 61%; activity at 10 µM [3, 5]: 21.5%; activity at 10 µM [3, 6]: 11.2%

Question: What does the source list for `CN(C)c1ccc(-c2nnc(-c3sc4cc(Cl)ccc4c3Cl)o2)cc1` [THK-262, [4-[5-(3,6-dichloro-benzo[b]thiophen-2-yl)-[1,3,4]oxadiazol-2-yl]-phenyl]-dimethylamine]?
Answer: Binding to (staining of) amyloid β protein in the brain section of an Alzheimer disease patient [1]: bound to the amyloid β protein; Specificity to amyloid β [1]: high specificity to amyloid β

Question: For `CN(C)c1ccc(/C=C\C=C2C(=O)c3ccccc3C2=O)cc1` [THK-248, 2-[3-(4-dimethylamino-phenyl)-allylidene]-indane-1,3-dione], which “Binding to (staining of) amyloid β protein in the brain section of an Alzheimer disease patient” value (“Binding” for short) [1] is on record?
Answer: The value was “bound to the amyloid β protein”.

Question: And the “Specificity to amyloid β” value [1]?
Answer: Its value is “high specificity to amyloid β”.

Question: For `c1csc(-c2nnc(-c3ccc(N4CCOCC4)cc3)o2)c1` [THK-383, 4-[4-(5-thiophen-2-yl-[1,3,4]oxadiazol-2-yl)-phenyl]-morpholine], which “Binding” value [1] is on record?
Answer: Its value is “bound to the amyloid β protein”.

Question: And the “Specificity to amyloid β” value [1]?
Answer: Its value is “high specificity to amyloid β”.

Question: For `CN(C)c1ccc(/C=C/C23NC(=O)CCN2c2ccc(Br)cc2C3(C)C)cc1` (centres unmarked) [THK-558, 8-bromo-10a-[2-(4-dimethyl-amino-phenyl)-vinyl]-10,10-dimethyl 1-3,4,10,10a-tetrahydro-1H-pyrimido[1,2-a]indol-2-one], which “Binding” value [1] is on record?
Answer: Its value is “bound to the amyloid β protein”.

Question: What about the “Specificity to amyloid β” value [1] of the same molecule?
Answer: Its value is “high specificity to amyloid β”.

Question: For `OCC(CF)Oc1ccc2nc(/C=C/c3cnc(N4CCCCCC4)s3)oc2c1` (centres unmarked) [THK-765, (E)-6-[(1-fluoromethyl-2-hydroxy)ethoxy]-2-[2-[2-(homopiperidin-1-yl)thiazol-5-yl]ethenyl]benzoxazole], which “Maximum Permissible Dose (mg/kg, intravenous administration)” value [2] is on record?
Answer: The value was “≧10 mg/kg”.

Question: What about the activity at 10 µM [3, 4] of the same molecule?
Answer: Its activity at 10 µM is 71.2%.

Question: What about the activity at 10 µM [3, 5] of the same molecule?
Answer: The activity at 10 µM was 41.3%.

Question: And the activity at 10 µM [3, 6]?
Answer: Its activity at 10 µM is 23%.

Question: Which “Binding” value [1] does the source give for `O=C1Nc2ccc(Cl)cc2/C1=C/c1ccc(N2CCOCC2)cc1` [THK-276, 5-chloro-3-(4-morpholin-4-yl-benzylidene)-1,3-dihydroindol-2-one] here?
Answer: Its value is “bound to the amyloid β protein”.

Question: And the “Specificity to amyloid β” value [1]?
Answer: Its value is “high specificity to amyloid β”.

Question: Which results are given for `O=C1Nc2ccc(Cl)cc2/C1=C/c1ccc(N2CCOCC2)s1` [THK-308, 5-chloro-3-(5-morpholin-4-yl-thiophen-2-ylmethylene)-1,3-dihydroindol-2-one]?
Answer: Binding to (staining of) amyloid β protein in the brain section of an Alzheimer disease patient [1]: bound to the amyloid β protein; Specificity to amyloid β [1]: high specificity to amyloid β
